Measurements taken from US20250186467A1, “METHODS OF TREATING MEDICAL CONDITIONS USING STAMPIDINE OR A RELATED COMPOUND” (ROME Therapeutics, Inc., priority 2022, published 2025).

Assays:
[1] = target: HERV-K reverse transcriptase (Homo sapiens, UniProt V9H0F6); assay: Homogeneous time-resolved fluorescence (HTRF) HERV-K RT assay; format: biochemical; settings: HERV-K reverse transcriptase (2-596)-8His protein, read-out: IC50, inhibition of HERV-K reverse transcriptase
Protocol: The HERV-K reverse transcriptase homogeneous time-resolved fluorescence (HTRF) assay was performed in a 384-well format with HERV-K reverse transcriptase (2-596)-8His protein. Baculoviruses were created using Bac-to-Bac technology (Invitrogen). pFastBac donor plasmids containing HERV-K reverse transcriptase sequence (NCBI GenBank number AAC63291.1, J. Virology (1999) Vol. 73, No. 3, pp. 2365-2375) were transformed into DH10 Bac cells following the manufacturer's instructions. Recombinant bacmids were then isolated clonally and transfected into SF9 cells with lipofectin. HERV-K reverse transcriptase was expressed in the SF9 insect cells and then purified using immobilized metal affinity chromatography (IMAC) followed by size-exclusion chromatography (SEC). […]
(§1) After incubating at 25° C. for 30 minutes, the detection reagent 20 mM EDTA with streptavidin-terbium cryptate (Cisbio Bioassay) in the PPI buffer (Cisbio Bioassay) was added, and the mixture was incubated at 25° C. for 30 minutes. At the end of the incubation, fluorescence was read at ex/em=337/485 nm and ex/em=337/520 nm on an Envision 2104 plate reader (Perkin Elmer). The fluorescence ratio at 520/485 nm was used for the calculation. […] The IC50 was calculated by fitting the compound dose inhibition curve with a 4-parameter non-linear regression equation.

[2] = target: T1, LINE1 reverse transcriptase (Homo sapiens, UniProt O00370); assay: Stable artificial-intron Cis LINE1 reporter assay; format: cell-based; design: expressed in transfected cells; host or cells: HeLa Tet-On 3G (Takara, cat no 631183); settings: HeLa L1 artificial-intron reporter cells, doxycycline induced, 72 h, Firefly luciferase; read-out: IC50, inhibition of LINE1 reverse transcriptase
Description: A stable HeLa Tet-On 3G (Takara, cat no 631183) cell line expressing a bi-directional inducible LINE1 construct was generated as described in Xie, Y. et al. “Cell division promotes efficient retrotransposition in a stable L1 reporter cell line,” Mobile DNA (2013) 4:10. Single cell clones were screened for high Luciferase expression and the highest expression Firefly expressing clone was chosen for compound testing.
Test compound was serially diluted in DMSO and spotted in 96-well plates. Subsequently the HeLa L1 artificial-intron reporter cells were plated into the compound-containing wells (8,000 cells/well), and the cells were induced for reporter expression with doxycycline (Sigma cat no D9891) at a final concentration of 500 ng/mL. Luminescence was measured 72 h after plating using the Dual-Glo Luciferase Assay System (Promega cat no E2940) following the manufacturer's instructions. The Firefly Luciferase activity was used to report LINE1 activity.

[3] = target: T1, LINE1 reverse transcriptase; assay: Transient artificial-intron Cis LINE1 reporter assay; format: cell-based; design: expressed in transfected cells; settings: HEK 293 cells, ratio FLuc/RLuc reports LINE1 activity; read-out: IC50, inhibition of FLuc (FF/RR)
Protocol: Intron-disrupted Firefly luciferase (FLuc) expression cassettes were generated as described by Xie, Y. et al. “Characterization of L1 retrotransposition with high-throughput dual-luciferase assays,” Nucleic Acid Res. (2011) Vol. 39, No. 3, e16. In addition, the plasmid contained an intact Renilla luciferase (RLuc) expression cassette on the vector backbone, in order to normalize transfection efficiency and measure potential cell toxicity.
HEK 293 cells were seeded in 96-well plates at 1,000 cells/well in 55 μL and grown for 24 hours. Cells were transfected with FuGeneHD (Promega) following the manufacturer's protocol. Each well received 0.133 ng plasmid, 0.4 μL FuGeneHD reagent, and 4.5 μL GlutaMAX-I-supplemented Opti-MEM I reduced-serum medium (Invitrogen). Cells were simultaneously treated with test compound serially diluted starting at 100 μM in a 3-fold dilution dose response.
Luminescence was measured using the Dual-Glo Luciferase Assay System (Promega) following the manufacturer's instructions. The ratio between FLuc and RLuc gene expression was used to report LINE1 activity.

[4] = target: T1, LINE1 reverse transcriptase; assay: Homogeneous time-resolved fluorescence (HTRF) LINE1 RT assay; format: biochemical; design: recombinant MBP-tagged LINE1 protein (238-1061); MBP; made in house; settings: recombinant MBP-tagged LINE1 protein (238-1061), read-out: IC50, inhibition of LINE1 reverse transcriptase
Protocol: The LINE1 reverse transcriptase homogeneous time-resolved fluorescence (HTRF) assay was performed with recombinant MBP-tagged LINE1 protein (238-1061) (generated and purified according to procedures in Dai L. et al. BMC Biochemistry 2011; 12:18) in a 384-well format. Test compound was serially diluted in DMSO and further diluted in the assay buffer (50 mM Tris-HCl, 50 mM KCl, 10 mM MgCl2, 10 mM DTT, pH 8.1) to achieve a final DMSO concentration of 1%. The serially diluted compound was mixed with 64 ng/well of LINE1 enzyme, 5 nM of pre-annealed template/biotin-primer pair (synthesized at Generay Biotechnology), 10 nM of Fluorescein-12-dATP fluorescent probe (Perkin Elmer), and 1 μM dGTP/dCTP/dTTP (Thermo Fisher Scientific) in the assay buffer. The template/biotin-primer sequences were as follows:
as §1, with “C. for 60 minutes, the” for “C. for 30 minutes, the”, “detection reagent (20 mM EDTA” for “detection reagent 20 mM EDTA”, “with streptavidin-terbium cryptate, Cisbio Bioassay) in” for “with streptavidin-terbium cryptate (Cisbio Bioassay) in”

THP1-Dual KO-TREX1 cells = assay: CellTiter-Glo cell viability in THP1 TREX1 KO cells; format: cell-based; settings: highest dose, with 1 μM 5-aza-2′-deoxycytidine, five days
Protocol: THP1 Dual TREX1 KO cells were purchased from Invivogen. The THP1-Dual™ KO-TREX1 cells were cultured in RPMI 1640, 10% heat-inactivated fetal bovine serum, 25 mM HEPES, 10 μg/mL Blasticidin, and 100 μg/mL Zeocin. THP1-Dual™ KO-TREX1 cells were treated with a dose titration of test compound in the presence of 1 μM 5-aza-2′-deoxycytidine (Sigma, cat #189825). Type 1 Interferon and cell viability were assessed after five days of treatment.
Stock solution of test compound was prepared in DMSO followed by a three-fold dilution in DMSO. Additional 50× dilution was prepared in cell culture media for each dilution. 10 μL of diluted test compound was then added to a 384-well plate.
THP1-Dual™ KO-TREX1 cells were treated with 1 μM 5-aza-2′-deoxycytidine. THP1-Dual™ KO-TREX1 cells (50 μL) were added to each well of the 384-well plate containing test compound titration at 10,000 cells/well. Cells were incubated at 37° C., 5% CO2 in a humidified incubator for five days. […] Luminescence was detected on a plate reader according to manufacturer's instructions. […]
The remaining cells were assessed for cell viability by adding 30 μl of CellTiter-Glo (Promega, 09683) solution to each well, and placed on a shaker for 10 minutes at room temperature. Luminescence was detected on a plate reader, according to manufacturer's instructions. […]

HERV-K reverse transcriptase, sequence (V9H0F6 entry or part of it): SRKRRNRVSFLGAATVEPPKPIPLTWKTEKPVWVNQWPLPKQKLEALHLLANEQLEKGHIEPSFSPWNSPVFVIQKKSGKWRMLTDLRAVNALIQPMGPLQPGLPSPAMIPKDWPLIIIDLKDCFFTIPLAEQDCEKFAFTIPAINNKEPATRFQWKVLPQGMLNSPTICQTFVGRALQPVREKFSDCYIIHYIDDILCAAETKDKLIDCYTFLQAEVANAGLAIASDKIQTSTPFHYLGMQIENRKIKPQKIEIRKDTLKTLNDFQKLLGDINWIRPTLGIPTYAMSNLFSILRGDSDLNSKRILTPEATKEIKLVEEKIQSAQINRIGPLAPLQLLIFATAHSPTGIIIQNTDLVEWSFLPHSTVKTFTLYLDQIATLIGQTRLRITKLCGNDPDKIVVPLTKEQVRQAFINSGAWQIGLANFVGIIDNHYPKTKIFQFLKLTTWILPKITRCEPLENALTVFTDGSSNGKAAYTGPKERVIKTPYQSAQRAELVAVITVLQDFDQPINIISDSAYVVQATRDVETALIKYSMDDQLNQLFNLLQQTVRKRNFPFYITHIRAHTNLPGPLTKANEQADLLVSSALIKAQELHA

In the case of `Cc1cn([C@H]2C=C[C@@H](COP(=O)(O)OP(=O)(O)OP(=O)(O)O)O2)c(=O)[nH]c1=O` [drawing 39], the IC50 [1] is reported as 0.042 µM.

With `COC(=O)[C@H](C)NP(=O)(OC[C@@H]1C=C[C@H](n2cc(C)c(=O)[nH]c2=O)O1)Oc1ccc(Br)cc1` (some centres unmarked) [drawing 37] the IC50 [2] was 0.017 µM.

`COC(=O)[C@H](C)NP(=O)(OC[C@@H]1C=C[C@H](n2cc(C)c(=O)[nH]c2=O)O1)Oc1ccc(Br)cc1` (some centres unmarked) [drawing 36] gave an IC50 [3] of 0.0057 µM.

For `Cc1cn([C@H]2C=C[C@@H](COP(=O)(O)OP(=O)(O)OP(=O)(O)O)O2)c(=O)[nH]c1=O` [drawing 38], the IC50 [4] was 0.023 µM.

For `Cc1cn([C@H]2C=C[C@@H](CO)O2)c(=O)[nH]c1=O` [stavudine, 1-((2R,5S)-5-(hydroxymethyl)-2,5-dihydrofuran-2-yl)-5-methylpyrimidine-2,4(1H,3H)-dione, reference compound], the “reduction in cell viability” value (THP1-Dual KO-TREX1 cells) was roughly 10%.
